# Results as given in patent US5460697A, “Method of pulping wood chips with a fungi using sulfite salt-treated wood chips” (priority 1994, dated 1995).
# “Also recorded” adds a separate entry of the source.
# What was measured:
# [1] = system: indigenous microorganisms; test: Contaminants level of sodium bisulfite-soaked aspen chips (plating before inoculation and at harvest); type: cell-based, endogenous microorganisms of aspen wood chips; details: for contaminants level at harvest (in words): fungus-treated chips with sodium bisulfite
# Experimental: (§1) Three batches of aspen wood chips were prepared, each batch containing 1800 g dry weight of chips. One batch was soaked in 18 kg of water containing no sodium bisulfite. A second batch was soaked in 18 kg of water containing 28.125 g of sodium bisulfite. A third batch was soaked in 18 kg of water containing 56.250 g of sodium bisulfite. After the chips had soaked, we performed our experiments on 1600 g of chips (dry weight basis). The soaking was done at room temperature for about 1 hour. After soaking, water or sodium bisulfite solution was drained through a mesh. Based on the amount of water or sodium bisulfite solution absorbed by the chips, we calculated that 1600 g dry weight of chips retained about 600 or 1200 μg/ml of sodium bisulfite. Thus, there were three treatments: 1) chips without sodium bisulfite (water only), 2) chips containing 600 μg/ml of sodium bisulfite, and 3) chips containing 1200 μg/ml of sodium bisulfite.
# Bioreactors containing soaked chips were left at room temperature for 48 h. U.S. Pat. No. 5,055,159 describes a suitable bioreactor. (U.S. Pat. No. 5,055,159 is hereby incorporated by reference.) Prior to inoculation, chips were pulled out from these bioreactors and plated on potato dextrose and tryptic soya agar plates to measure the contaminants level. These plates were incubated at 27° C. and 65% relative humidity for 24 h.
# At harvest, fungus-treated chips with and without sodium bisulfite soaking were plated on potato dextrose and tryptic soya agar plates to determine the contaminants level. These plates were incubated at 27° C. and 65% relative humidity for 72 h. […] High level of sodium bisulfite (1200 μg/ml) caused only 1.7% wood loss, saved 18.4% of electrical energy, improved tear index by 15%, and fiber length by 26% as compared to the control.
# We repeated the experiment described above with a four-week incubation. Four batches of aspen wood chips were prepared, each batch containing 3600 g dry weight of chips. One batch was soaked in 36 kg of water containing no sodium bisulfite. Second, third and fourth batches each were soaked in 36 kg of water containing 112.50 g of sodium bisulfite at room temperature for about 1 hour. After soaking, water or sodium bisulfite solution was drained through a mesh. Based on the amount of water or sodium bisulfite solution soaked, we calculated that each batch of 1600 g dry weight of chips retained about 1300 μg/ml of sodium bisulfite. Bioreactors containing soaked chips were left at room temperature for 48 h. The following eight treatments were made:
# Prior to inoculation, chips were pulled out from the bioreactors and plated on potato dextrose and tryptic soya agar plates to determine the contaminants level. These plates were incubated at 27° C. and 65% relative humidity for 24 h. […]
# C. subvermispora = test: Growth of C. subvermispora on sodium bisulfite-treated chips; type: cell-based; details: for growth of C. subvermispora at harvest (in words): fungus-treated chips with sodium bisulfite
# Experimental: To prepare a liquid inoculum of C. subvermispora, potato dextrose broth (43.20 g) and yeast extract (13.08 g) were added to 1800 ml of distilled water and mixed well. 300 ml of this medium was poured into six 2800-ml flasks. Each flask was autoclaved for 20 min. at 121° C. After cooling to room temperature, each flask was inoculated with 30 plugs cut into 13-mm diameter plugs from a 10-day old fungal culture on a potato dextrose agar plate. The flasks were then incubated at 27° C. at 65% relative humidity for 10-15 days. Prior to use, the flasks containing the fungal biomass were decanted and washed with sterile distilled water to remove excess medium from the fungus. The fungal biomass was then placed in distilled water and blended in a Waring blender (VWR scientific) twice for 15 seconds each time at high speed, following which distilled water was added to the suspension to make the total volume 500 ml. About 100 grams of this suspension (2.61 g dry weight) was added to each bioreactor containing about 1600 grams of aspen chips measured on a dry weight basis prepared as described below. The blended mycelium was dumped onto the chips and mixed.
# as §1, with “After soaking, water or sodium bisulfite solution was drained through a mesh.” left out, “Thus, there were three treatments: 1) chips without sodium bisulfite (water only), 2) chips containing 600 μg/ml of sodium bisulfite, and 3) chips containing 1200 μg/ml of sodium bisulfite.” left out
# We repeated the experiment described above with a four-week incubation. […] Based on the amount of water or sodium bisulfite solution soaked, we calculated that each batch of 1600 g dry weight of chips retained about 1300 μg/ml of sodium bisulfite. […]
# [2] = system: Phanerochaete chrysosporium BKM-F-1767; test: Effect of sodium bisulfite on radial growth and mycelial dry weight of P. chrysosporium; type: cell-based
# Experimental: 2% agar was added to the medium. The medium was autoclaved for 15 min. and the medium was poured into petri dishes. These plates were then inoculated with a plug cut into 8-mm diameter plugs from a petri dish containing a 5-day-old culture of P. chrysosporium or a petri dish containing a 10-day-old culture of another white-rot fungi. P. chrysosporium-inoculated plates were incubated at 39° C. Plates inoculated with other fungi were incubated at 27° C.
# [3] = Effluent toxicity (Microtox); details: for Toxicity Units (100/EC50): 1300 μg/ml BiS
# Excerpt: Evaluating biopulp effluents is an important factor in assessing the feasibility of this new pulping process. […] Because the composition of biopulp effluent is unknown, we selected a general toxicity test method, Microtox, as an appropriate method for the evaluation. Microtox analysis has been used satisfactorily as a rapid screening method for evaluating toxicity of pulp mill effluents Firth, B. and Backman, C. Tappi J., 75[12]169; 1991.
# For each run, approximately 1.5-1.6 kg wood chips (oven dry weight basis) of each treatment from 4-week incubation samples, were fiberized in an atmospheric refiner and the pulp slurry was collected in 20-gallon plastic containers. The flow rate during refining operation was approximately 50 kg 90° C. water per kg chips (oven dry weight basis). A representative 5-gallon sample was taken from each slurry and filtered on a Buchner funnel to separate pulp from effluent (filtrate). Filtrates were cooled to 4° C. and pH was recorded. Chilled effluent samples were submitted for Microtox testing at National Council for Air and Stream Improvement according to standard Microtox procedures.
smiles,measurement,setting,value
O=S([O-])O.[Na+] [Sodium Bisulfite],endogenous microorganisms on chips (in words),"[1]; 1200 μg/ml, prior to inoculation, 48 h after soaking, 2-week experiment",no endogenous microorganisms
same,inhibition of microorganisms prior to inoculation (in words),"[1]; 1300 μg/ml, 4-week experiment",completely inhibited microorganisms
same,contaminants level at harvest (in words),[1]; 2 weeks,almost no contamination
same,contaminants level at harvest (in words),[1]; 4 weeks,almost no contamination
same,growth of C. subvermispora at harvest (in words),C. subvermispora; 2 weeks,heavy growth of C. subvermispora
same,growth of C. subvermispora at harvest (in words),C. subvermispora; 4 weeks,heavy growth of C. subvermispora
same,growth of white-rot fungi such as C. subvermispora (in words),"C. subvermispora; treatment of wood chips, summary",promoted the growth of white-rot fungi
same,Mycelial Dry Weight 36 ± SD,[2]; 100 μg/ml,21 ± 3 mg
same,Radial Growth 24 h ± SD,[2]; 100 μg/ml,4.30 ± .26 cm
same,Radial Growth 36h ± SD,[2]; 100 μg/ml,7.52 ± .27 cm
same,Mycelial Dry Weight 36 ± SD,[2]; 250 μg/ml,39 ± 8 mg
same,Radial Growth 24 h ± SD,[2]; 250 μg/ml,5.16 ± .28 cm
same,Radial Growth 36h ± SD,[2]; 250 μg/ml,8.62 ± .20 cm
same,Mycelial Dry Weight 36 ± SD,[2]; 500 μg/ml,36 ± 6 mg
same,Radial Growth 24 h ± SD,[2]; 500 μg/ml,5.07 ± .25 cm
same,Radial Growth 36h ± SD,[2]; 500 μg/ml,8.68 ± .09 cm
same,Mycelial Dry Weight 36 ± SD,[2]; 1000 μg/ml,10 ± 2 mg
same,Radial Growth 24 h ± SD,[2]; 1000 μg/ml,1.15 ± .22 cm
same,Radial Growth 36h ± SD,[2]; 1000 μg/ml,2.88 ± .42 cm
same,dry weight of the fungus (in words),[2]; 250 or 500 μg/ml,increased
same,radial growth (in words),"[2]; 250 or 500 μg/ml, 24 and 36 h",increased the radial growth of P. chrysosporium
same,growth of white-rot fungi such as P. chrysosporium (in words),[2]; summary statement,promoted the growth of white-rot fungi
same,Toxicity Units (100/EC50),"[3]; Control 2: not A/C, no fungus",15.4 Toxicity Units
same,Toxicity Units (100/EC50),"[3]; Control 4: A/C, no fungus",16.1 Toxicity Units
same,Toxicity Units (100/EC50),"[3]; Treatment 2: not A/C, with fungus, 4-week incubation",4.2 Toxicity Units
same,Toxicity Units (100/EC50),"[3]; Treatment 4: A/C, with fungus, 4-week incubation",6.2 Toxicity Units
same,toxicity (in words),"[3]; at least 2-2.5 kg/ton of wood chips, unsterilized, vs control chips",less toxicity than from control chips
same,effluent toxicity (in words),"[3]; biopulp, treatment 2",least toxic effluent from biopulp
same,effluent toxicity (in words),"[3]; controls without fungus (control 2, control 4)",high effluent toxicity; also recorded: increased effluent toxicity of the non-autoclaved control chips
